Measured values: US5952183A, “Synthesis of estrogen-purine base and estrogen-mercapturate adducts and development of fluorescent probes and monoclonal antibodies to assay those adducts” (priority 1998, dated 1999)
Read-outs that look alike come from different tables or passages of the source.

Legend:
hamster kidney = conditions: Syrian golden hamsters; cited from earlier work
DNA = experiment: Formation of DNA adducts by quinones or horseradish peroxidase-activated catechol estrogens in vitro (32P-postlabeling for stable adducts); type: biochemical
Text: First, the o-quinones of estrogens are capable of binding directly to the nucleophilic groups of DNA bases. Second, the 3,4-quinones of estrogens produce depurinating adducts that are lost from DNA, generating apurinic sites in the DNA; and third, the 2,3-quinones form stable adducts that remain bound to DNA if not repaired. In fact, reaction of 2,3- and 3,4-quinones with DNA or CE activated by horseradish peroxidase in the presence of DNA affords differential formation of stable adducts, as evidenced by 32P-postlabeling analysis. The 2,3-quinones form 10-50 times higher levels of stable adducts than the 3,4-quinones.

DNA, rat mammary gland = experiment: Formation of depurinating DNA adducts in the rat mammary gland; type: in vivo
[1] = Stability of estrogen quinones at various pH (remaining quinone by HPLC); type: physicochemical
Method: Because acidic conditions were used to generate these estrogen-nucleoside adducts, an investigation was conducted of the effects of pH on the stability of both the 3,4- and 2,3-quinones.
^a pH was adjusted with the following buffers: pH 9, trisHCl; pH 7,
distilled H2 O; […]; pH 3, citric acid.
^b t1/2 is defined as the time when 1/2 of the original quinone
concentration was observed by HPLC
^c Quinones (0.02 mmol) were synthesized in 2 mL of CH3 CN and
placed in 10 mL of aqueous buffer

[2] = 1H-NMR monitoring of E1-2,3-Q to quinone methide tautomerization in CH3CN-d3; type: physicochemical
[3] = published isomerization study of model o-quinone; cited from earlier work

Compound: C[C@]12CC[C@@H]3c4ccc(O)cc4CC[C@H]3[C@@H]1CCC2=O [E1, estrone]
- induction of renal tumors / carcinogenicity (hamster kidney): Malignant renal tumors are induced

Compound: C[C@]12CC[C@@H]3c4ccc(O)c(O)c4CC[C@H]3[C@@H]1CCC2=O [4-OHE1, 4-hydroxyestrone]
- formation of depurinating E1(E2)-1-(α,β)-N7Gua adducts (DNA): almost exclusively
- formation of depurinating E1(E2)-1-(α,β)-N7Gua adducts (DNA, rat mammary gland; rat, in vivo): almost exclusively

Compound: C[C@]12CC[C@@H]3C4=C(CC[C@H]3[C@@H]1CCC2=O)C(=O)C(=O)C=C4 [E1-3,4-Q]
- effect of lowering pH on stability [1]: marked increase in stability
- half-life ([1]; citric acid, pH 3): 6.5 h
- half-life ([1]; distilled h2o, pH 7): 1.83 h
- decomposition under mildly basic conditions [1]: decomposed rapidly
- half-life ([1]; trishcl, pH 9): < 0.0833 h
- half-life ([1]; trizma, pH 5): 3.17 h

Compound: C[C@]12CC[C@@H]3C4=CC(=O)C(=O)C=C4CC[C@H]3[C@@H]1CCC2=O [E1-2,3-Q]
- effect of lowering pH on stability [1]: did not
- decomposition under mildly basic conditions [1]: decomposed rapidly
- half-life ([1]; pH 3, citric acid, read-out: t1/2 (time when 1/2 of the original quinone concentration was observed by HPLC)): 1.17 h
- half-life ([1]; pH 5, trizma, read-out: t1/2 (time when 1/2 of the original quinone concentration was observed by HPLC)): 1.83 h
- half-life ([1]; pH 7, distilled H2O, read-out: t1/2 (time when 1/2 of the original quinone concentration was observed by HPLC)): 1.83 h
- half-life ([1]; pH 9, trisHCl, read-out: t1/2 (time when 1/2 of the original quinone concentration was observed by HPLC)): < 0.0833 h
- change of 1H-NMR spectrum over time ([2]; CH3CN-d3, two days): unchanged for two days
- change of o-quinone 1H-NMR spectrum over time with acid ([2]; CH3CN-d3 with CF3CO2H-d, two weeks): no change in the o-quinone spectrum was observed

Compound: C[C@]12CC[C@@H]3c4ccc(O)cc4CC[C@H]3[C@@H]1CC[C@@H]2O [E2, 17β-estradiol]
- induction of renal tumors / carcinogenicity (hamster kidney): Malignant renal tumors are induced

Compound: C[C@]12CC[C@@H]3c4ccc(O)c(O)c4CC[C@H]3[C@@H]1CC[C@@H]2O [4-OHE2, 4-hydroxyestradiol]
- formation of depurinating E1(E2)-1-(α,β)-N7Gua adducts (DNA; in vitro, 3,4-quinones or enzymically-activated 4-OHE1/4-OHE2): almost exclusively
- formation of depurinating E1(E2)-1-(α,β)-N7Gua adducts (DNA, rat mammary gland; rat mammary gland): almost exclusively

Compound: O=C1C=C2CCCCC2=CC1=O
- o-quinone more stable when tautomerized to the QM by [3]: 3.8 kcal/mol
